Results from US12371748B2, “Genetic markers for predicting responsiveness to therapy with HDL-raising or HDL mimicking agent” (Hoffmann-La Roche Inc., priority 2014, dated 2025).

Test system: patients with evidence of coronary artery disease
Experiment: dal-PLAQUE-2: change in carotid intima-media thickness (B-mode ultrasound) by ADCY9 genotype
Type: in vivo, human
Excerpt: The dal-PLAQUE-2 study (Tardif J C et al, Circulation Cardiovascular imaging 2011; 4:319-33) was a phase 3b multicenter, double-blind, randomized, placebo-controlled, parallel group trial designed to evaluate the effect of dalcetrapib on atherosclerotic disease progression in patients with evidence of coronary artery disease and carotid intima media thickness of at least 0.65 mm in the far wall of the common carotid arteries, as assessed by B-mode ultrasonography. A total of 931 patients were randomized to receive dalcetrapib 600 mg daily or matching placebo with intended treatment duration of 24 months. However, the trial was terminated prematurely concurrent with the termination of dal OUTCOMES (the latter due to futility). Patients continued study medication until they returned for follow-up carotid imaging at 12 months. Carotid B-mode ultrasound recordings at baseline, month 6, and month 12 were analyzed centrally at the core laboratory of the Montreal Heart Institute. Intima-media thickness (IMT) was analyzed on the far wall of the common carotid arteries. A segment of 10 mm in length of the common carotid artery was analyzed on serial examinations using an automated edge detection software (Carotid Analyzer, Medical Imaging Applications, Coralville, Iowa). Among the 411 participants in the dal-PLAQUE-2 trial who consented to the genetic study, 386 had imaging measures at baseline, 6 months and 12 months (194 and 192 in the dalcetrapib and placebo arms respectively). DNA was extracted from whole blood. The research protocols were approved by the relevant institutional review boards or ethics committees and all human participants gave written informed consent.
All acquired carotid ultrasound recordings were analyzed at the core laboratory of the Montreal Heart Institute by experienced technicians supervised by a physician. Images were required to meet quality and inclusion and exclusion criteria for eligibility prior to random assignment to study treatment. The methods for carotid intima-media thickness analysis included side-by-side viewing of baseline and follow-up studies.
Carotid arterial wall segments were assessed in a longitudinal view, perpendicular to the ultrasound beam, with a horizontal display of the arterial image in order to view the interfaces between blood and vascular structures on the longest possible segment. The localization of the end of the common carotid artery was used as the landmark in repositioning and analyzing comparative length of segments in baseline and follow-up studies. Intima-media thickness was analyzed on the far wall of the right and left common carotid arteries, to reduce variability of measurements. The average of the mean intima-media thickness values of the right and left common carotid arteries was used. A matched segment of 10 mm in length of the common carotid artery was analyzed on serial examinations (baseline, 6 months and 12 months), starting 5 mm proximal to the carotid bifurcation. The edge detection software Carotid Analyzer (Medical Imaging Applications LLC, Coralville, Iowa) was used to analyze intima-media thickness using the automated option. Two sets of carotid artery borders were identified: First, the media-adventitia borders were determined and verified by the reader. When required, their locations were semi-automatically modified to the correct location. When these borders were approved, the lumen-intima boundaries were automatically detected using the media-adventitia borders for guidance. Frames from looped sequences of intima-media thickness were selected for reading, and poor quality outlier frames were removed from the analysis when required.
For the dal-Plaque-2 population, mixed regression models for repeated measures analysis were tested in SAS software. The dal-Plaque-2 tested endpoint was the mean of IMT measures of common carotid arteries at the 6-month and the 12-month visits, using the baseline measure as covariate. […]

CCC(CC)CC1(C(=O)Nc2ccccc2SC(=O)C(C)C)CCCCC1 [dalcetrapib, thioisobutyric acid S-(2-{[1-(2-ethyl-butyl)-cyclohexanecarbonyl]-amino}-phenyl) ester]
Change from baseline in carotid intima-media thickness, Mean (rs1967309, heterozygotes, M12): −0.001 mm | Change from baseline in carotid intima-media thickness, Mean (rs1967309, homozygotes for major allele, M06): 0.006 mm | Change from baseline in carotid intima-media thickness, Mean (rs1967309, homozygotes for major allele, M12): 0.005 mm | Change from baseline in carotid intima-media thickness, Mean (rs1967309, homozygotes for minor allele, M12): −0.021 mm | change in IMT after 12 months of treatment (rs1967309 AA homozygotes): −0.021±0.083 mm | change in IMT after 12 months of treatment (rs1967309 GG homozygotes): +0.005±0.042 mm | change in IMT after 12 months of treatment (rs1967309 heterozygotes): −0.001±0.048 mm | Change from baseline in carotid intima-media thickness, Mean (rs2238448, heterozygotes, M06): −0.003 mm | Change from baseline in carotid intima-media thickness, Mean (rs2238448, heterozygotes, M12): 0.000 mm | Change from baseline in carotid intima-media thickness, Mean (rs2238448, homozygotes for major allele, M06): 0.011 mm | Change from baseline in carotid intima-media thickness, Mean (rs2238448, homozygotes for major allele, M12): 0.009 mm | Change from baseline in carotid intima-media thickness, Mean (rs2238448, homozygotes for minor allele, M06): −0.010 mm | Change from baseline in carotid intima-media thickness, Mean (rs2238448, homozygotes for minor allele, M12): −0.027 mm | change in IMT after 12 months of treatment (rs2238448 CC (common allele homozygotes)): +0.009±0.038 mm | change in IMT after 12 months of treatment (rs2238448 TT (minor allele homozygotes)): −0.027±0.079 mm | change in IMT after 12 months of treatment (rs2238448 heterozygotes): 0.000±0.048 mm | Change from baseline in carotid intima-media thickness, Mean (rs2239310, heterozygotes, M06): −0.004 mm | Change from baseline in carotid intima-media thickness, Mean (rs2239310, heterozygotes, M12): −0.003 mm | Change from baseline in carotid intima-media thickness, Mean (rs2239310, homozygotes for major allele, M06): 0.004 mm | Change from baseline in carotid intima-media thickness, Mean (rs2239310, homozygotes for major allele, M12): 0.001 mm | Change from baseline in carotid intima-media thickness, Mean (rs2239310, homozygotes for minor allele, M06): −0.001 mm | Change from baseline in carotid intima-media thickness, Mean (rs2239310, homozygotes for minor allele, M12): −0.002 mm | Change from baseline in carotid intima-media thickness, Mean (rs2283497, heterozygotes, M06): −0.001 mm | Change from baseline in carotid intima-media thickness, Mean (rs2283497, heterozygotes, M12): 0.005 mm | Change from baseline in carotid intima-media thickness, Mean (rs2283497, homozygotes for minor allele, M06): −0.005 mm | Change from baseline in carotid intima-media thickness, Mean (rs2283497, homozygotes for minor allele, M12): −0.006 mm | Change from baseline in carotid intima-media thickness, Mean (rs2531967, heterozygotes, M06): −0.008 mm | Change from baseline in carotid intima-media thickness, Mean (rs2531967, heterozygotes, M12): −0.006 mm | Change from baseline in carotid intima-media thickness, Mean (rs2531967, homozygotes for minor allele, M06): −0.007 mm | Change from baseline in carotid intima-media thickness, Mean (rs2531967, homozygotes for minor allele, M12): −0.031 mm | Change from baseline in carotid intima-media thickness, Mean (rs2531971, heterozygotes, M06): −0.002 mm | Change from baseline in carotid intima-media thickness, Mean (rs2531971, heterozygotes, M12): 0.002 mm | Change from baseline in carotid intima-media thickness, Mean (rs2531971, homozygotes for major allele, M06): 0.008 mm | Change from baseline in carotid intima-media thickness, Mean (rs2531971, homozygotes for major allele, M12): −0.002 mm | Change from baseline in carotid intima-media thickness, Mean (rs2531971, homozygotes for minor allele, M06): −0.010 mm | Change from baseline in carotid intima-media thickness, Mean (rs2531971, homozygotes for minor allele, M12): −0.016 mm | Change from baseline in carotid intima-media thickness, Mean (rs3730119, heterozygotes, M06): −0.002 mm | Change from baseline in carotid intima-media thickness, Mean (rs3730119, heterozygotes, M12): 0.004 mm | Change from baseline in carotid intima-media thickness, Mean (rs3730119, homozygotes for minor allele, M06): 0.006 mm | Change from baseline in carotid intima-media thickness, Mean (rs3730119, homozygotes for minor allele, M12): −0.028 mm | Change from baseline in carotid intima-media thickness, Mean (rs4786454, heterozygotes, M06): −0.007 mm | Change from baseline in carotid intima-media thickness, Mean (rs4786454, heterozygotes, M12): −0.005 mm | Change from baseline in carotid intima-media thickness, Mean (rs4786454, homozygotes for minor allele, M06): −0.020 mm | Change from baseline in carotid intima-media thickness, Mean (rs4786454, homozygotes for minor allele, M12): −0.049 mm | Change from baseline in carotid intima-media thickness, Mean (rs8049452, heterozygotes, M06): −0.002 mm | Change from baseline in carotid intima-media thickness, Mean (rs8049452, heterozygotes, M12): 0.003 mm | Change from baseline in carotid intima-media thickness, Mean (rs8049452, homozygotes for major allele, M06): −0.008 mm | Change from baseline in carotid intima-media thickness, Mean (rs8049452, homozygotes for major allele, M12): −0.013 mm | Change from baseline in carotid intima-media thickness, Mean (rs8049452, homozygotes for minor allele, M06): 0.020 mm | Change from baseline in carotid intima-media thickness, Mean (rs8049452, homozygotes for minor allele, M12): 0.006 mm | Change from baseline in carotid intima-media thickness, Mean (rs8061182, heterozygotes, M06): 0.000 mm | Change from baseline in carotid intima-media thickness, Mean (rs8061182, heterozygotes, M12): 0.007 mm | Change from baseline in carotid intima-media thickness, Mean (rs8061182, homozygotes for minor allele, M06): 0.016 mm
